Earlier results in US12435156B2, “Methods for treating neuroblastoma with combination therapy” (MEMORIAL SLOAN-KETTERING CANCER CENTER, priority 2018, dated 2025).

What was measured:
[1] = not given; remark: listed apart in the source
[2] = human, in vivo
[3] = target: T1, topoisomerase I (Homo sapiens, UniProt P11387)
T1 sequence (P11387 1-765): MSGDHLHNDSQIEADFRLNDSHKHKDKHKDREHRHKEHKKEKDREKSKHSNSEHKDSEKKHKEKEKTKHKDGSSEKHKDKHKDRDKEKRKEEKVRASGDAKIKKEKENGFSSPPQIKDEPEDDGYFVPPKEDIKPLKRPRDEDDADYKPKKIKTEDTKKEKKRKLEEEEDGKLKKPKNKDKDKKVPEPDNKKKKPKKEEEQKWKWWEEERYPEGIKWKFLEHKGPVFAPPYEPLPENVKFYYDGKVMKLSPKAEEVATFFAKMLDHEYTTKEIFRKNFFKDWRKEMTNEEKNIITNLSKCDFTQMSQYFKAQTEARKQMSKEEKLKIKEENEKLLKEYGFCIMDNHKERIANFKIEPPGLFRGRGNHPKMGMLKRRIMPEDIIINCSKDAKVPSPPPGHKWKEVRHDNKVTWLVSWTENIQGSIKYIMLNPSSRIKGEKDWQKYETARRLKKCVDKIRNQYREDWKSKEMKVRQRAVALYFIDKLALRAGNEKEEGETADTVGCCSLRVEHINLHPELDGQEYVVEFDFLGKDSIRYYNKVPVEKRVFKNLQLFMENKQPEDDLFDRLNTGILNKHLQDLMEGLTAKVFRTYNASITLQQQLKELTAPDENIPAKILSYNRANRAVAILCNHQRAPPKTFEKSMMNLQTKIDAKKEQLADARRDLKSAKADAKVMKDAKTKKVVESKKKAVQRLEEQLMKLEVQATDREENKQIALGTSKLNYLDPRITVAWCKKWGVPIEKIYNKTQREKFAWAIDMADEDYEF

[4] = system: human plasma proteins
[5] = system: Cytochrome P450 enzymes
[6] = not given; remark: listed apart in the source
[7] = not given; remark: listed apart in the source

## NC(=O)c1[nH]cnc1N [AIC]
In vivo
  Exposure relative to the AUC of temozolomide: 23%

## CCc1c2c(nc3ccc(OC(=O)N4CCC(N5CCCCC5)CC4)cc13)-c1cc3c(c(=O)n1C2)COC(=O)[C@]3(O)CC [Irinotecan, (S)-4,11-diethyl-4-hydroxy-3,14-dioxo-3,4,12,14-tetrahydro-1H-pyrano[3′,4′:6,7]indolizino[1,2-b]quinolin-9-yl [1,4′-bipiperidine]-1′-carboxylate]
[1]
  Water solubility: water-soluble
[2]
  Toxicity associated with treatment: severe diarrhea, myelosuppression, and neutropenia

## CCc1c2c(nc3ccc(O)cc13)-c1cc3c(c(=O)n1C2)COC(=O)[C@]3(O)CC [SN-38, 7-ethyl-10-hydroxycamptothecin]
[3]
  Topoisomerase I inhibitor potency/activity: much higher potency than irinotecan

## CCc1c2c(nc3ccc(O[C@@H]4O[C@H](C(=O)O)[C@@H](O)[C@H](O)[C@H]4O)cc13)-c1cc3c(c(=O)n1C2)COC(=O)[C@]3(O)CC [SN-38G, SN-38 glucuronide]
[3]
  Topoisomerase I inhibitor potency/activity: inactive

## Cn1nnc2c(C(N)=O)ncn2c1=O [Temozolomide, 3,4-dihydro-3-methyl-4-oxoimidazo[5,1-d]-as-tetrazine-8-carboxamide]
% CV=13%
  Mean apparent volume of distribution: 0.4 L/kg
In vivo
  Kinetics over the therapeutic dosing range: linear kinetics
  Overall clearance: about 5.5 L/hr/m^2
oral
  Absorption after oral administration: rapidly and completely absorbed
Oral administration
  Time of peak plasma concentrations: 1 h
Over 7 days
  Administered total radioactive dose recovered in feces: 0.8%
  Administered total radioactive dose recovered in urine: 37.7%
Over 7 days, total
  Administered total radioactive dose recovered: About 38%
[4]
  Mean percent bound of drug-related total radioactivity: 15%
[5]
  Role of cytochrome P450 enzymes in metabolism: only a minor role
[6]
  Stability at physiologic pH: spontaneously hydrolyzed
[2]
  Dose-limiting side effects: hematologic toxicity, myelosuppression, anemia, and leukopenia

## Cn1nnc2c(C(=O)O)ncn2c1=O [temozolomide acid metabolite]
After temozolomide radioactive dose
  Recovery of radioactivity in urine as this species: 2.3%

## sargramostim: Yeast-derived human recombinant granulocyte-macrophage colony stimulating factor
[7]; 2-8° C.
  Storage of liquid once the vial has been entered: up to 20 days
[7]; 250 mcg vial reconstituted with 0.5 mL sterile water, 500 mcg/mL
  pH of reconstituted solution: 7.4±0.3
[7]; single-use 250 mcg vials, no preservative
  Time to administration following reconstitution: ≤ 6 h
